Results published in patent US5120744A, “Substituted (quinolin-2-yl-methoxy)phenylthioureas” (Bayer Aktiengesellschaft, priority 1989, dated 1992).
Values belong to the molecule of their own block, whether it stands above or below them.

Test system: lipoxygenase
Assay: lipoxygenase inhibition: release of leukotriene B4 (LTB4) from polymorphonuclear rat leukocytes (PMN), reverse phase HPLC, after adding substances and Ca ionophore
Assay type: cell-based
Settings: read-out: LO inhibition IC50
Procedure: As a measure of the lipoxygenase inhibition, the release of leukotriene B4 (LTB4) from polymorphonuclear rat leukocytes (PMN) was determined by means of reverse phase HPLC according to Borgeat, P. et al., Proc. Nat. Acad. Sci. 76, 2148-2152 (1979) after adding substances and Ca ionophore. The in vivo activity of the compounds was determined using the mouse ear inflammation model according to Young, J. M. et al., J. of Investigative Dermatology 82, 367-371, (1984).

SMILES: O=C(NC(=S)Nc1ccc(OCc2ccc3ccccc3n2)cc1)c1ccc(Cl)cc1 [Example 6, N-(4-Chlorobenzoyl)-N'-4-(quinolin-2-yl-methoxy)-phenyl-thiourea]
IC50: 360 nM

SMILES: N#CC1(NC(=S)Nc2ccc(OCc3ccc4ccccc4n3)cc2)CCCCC1 [Example 7, N-(1-Cyano-cyclohexyl)-N'-4-(quinolin-2-yl-methoxy)phenyl-thiourea]
IC50: 240 nM

SMILES: Cc1cc(Cl)ccc1NC(=S)Nc1ccc(OCc2ccc3ccccc3n2)cc1 [Example 8, N-(2-Methyl-4-chlorophenyl)-N'-4-(quinolin-2-yl-methoxy)phenyl-thiourea]
IC50: 290 nM

The remaining lines, values ahead:

IC50: 36 nM
SMILES: Cc1cc([N+](=O)[O-])ccc1NC(=S)Nc1ccc(OCc2ccc3ccccc3n2)cc1 [Example 3, N-(2-Methyl-4-nitrophenyl)-N'-4-(quinolin-2-yl-methoxy)phenyl-thiourea]

IC50: 33 nM
SMILES: Cc1cc([N+](=O)[O-])c(Cl)cc1NC(=S)Nc1ccc(OCc2ccc3ccccc3n2)cc1 [Example 4, N-(2-Methyl-4-nitro-5-chlorophenyl)-N'-4-(quinolin-2-yl-methyloxy)phenyl-thiourea]

IC50: 410 nM
SMILES: Cc1cc(Cl)c(Cl)cc1NC(=S)Nc1ccc(OCc2ccc3ccccc3n2)cc1 [Example 5]
